In ChEMBL document CHEMBL3991601, “The target landscape of clinical kinase drugs” (Science, 2017):
Calls of active or inactive are those of the source. For most assays here, no stated cut-off is given here; in the data, actives have a measured Kd and inactives only a lower limit.

Target: T1, Activin receptor type-1B (Homo sapiens, UniProt P36896)
T1 sequence (P36896 whole entry): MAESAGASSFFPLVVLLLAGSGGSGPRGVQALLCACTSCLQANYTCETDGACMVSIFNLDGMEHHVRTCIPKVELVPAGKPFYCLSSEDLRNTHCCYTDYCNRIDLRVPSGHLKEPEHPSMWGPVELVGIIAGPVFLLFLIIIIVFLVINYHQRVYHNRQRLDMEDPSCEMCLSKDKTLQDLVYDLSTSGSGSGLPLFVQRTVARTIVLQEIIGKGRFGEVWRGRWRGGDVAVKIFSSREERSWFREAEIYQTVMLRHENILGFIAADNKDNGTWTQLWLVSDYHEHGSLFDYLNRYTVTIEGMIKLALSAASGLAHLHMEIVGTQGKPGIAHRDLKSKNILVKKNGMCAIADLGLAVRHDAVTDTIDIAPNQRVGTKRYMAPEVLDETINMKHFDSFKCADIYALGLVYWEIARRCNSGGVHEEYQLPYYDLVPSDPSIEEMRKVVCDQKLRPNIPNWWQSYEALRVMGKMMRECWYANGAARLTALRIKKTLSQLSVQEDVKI

Q: Which Kd does the source give for `Cc1c(F)cc(C(=O)NC2CC2)cc1-c1ccc(C(=O)NCC(C)(C)C)cn1` [LOSMAPIMOD] here?
A: > 30 µM (inactive)

Q: With `Cn1cc(-c2ccc(F)c(C(F)(F)F)c2)nc1C1CCN(c2ncnc3[nH]ncc23)CC1` [LY-2584702] as the molecule, how does the Kd read?
A: > 30 µM (inactive)

Q: `O=C(O)[C@]1(Cc2cccc(Nc3nccs3)n2)CC[C@@H](Oc2cccc(Cl)c2F)CC1` [MK-5108] was tested. Which Kd did it give?
A: 0.425 µM (active)

Q: For `C1=C/COCc2cc(ccc2OCCN2CCCC2)Nc2nccc(n2)-c2cccc(c2)COC/1` [PACRITINIB], which Kd is on record?
A: > 30 µM (inactive)

Target: Serine/threonine-protein kinase MRCK alpha (Homo sapiens, UniProt Q5VT25)
Sequence (Q5VT25 whole entry): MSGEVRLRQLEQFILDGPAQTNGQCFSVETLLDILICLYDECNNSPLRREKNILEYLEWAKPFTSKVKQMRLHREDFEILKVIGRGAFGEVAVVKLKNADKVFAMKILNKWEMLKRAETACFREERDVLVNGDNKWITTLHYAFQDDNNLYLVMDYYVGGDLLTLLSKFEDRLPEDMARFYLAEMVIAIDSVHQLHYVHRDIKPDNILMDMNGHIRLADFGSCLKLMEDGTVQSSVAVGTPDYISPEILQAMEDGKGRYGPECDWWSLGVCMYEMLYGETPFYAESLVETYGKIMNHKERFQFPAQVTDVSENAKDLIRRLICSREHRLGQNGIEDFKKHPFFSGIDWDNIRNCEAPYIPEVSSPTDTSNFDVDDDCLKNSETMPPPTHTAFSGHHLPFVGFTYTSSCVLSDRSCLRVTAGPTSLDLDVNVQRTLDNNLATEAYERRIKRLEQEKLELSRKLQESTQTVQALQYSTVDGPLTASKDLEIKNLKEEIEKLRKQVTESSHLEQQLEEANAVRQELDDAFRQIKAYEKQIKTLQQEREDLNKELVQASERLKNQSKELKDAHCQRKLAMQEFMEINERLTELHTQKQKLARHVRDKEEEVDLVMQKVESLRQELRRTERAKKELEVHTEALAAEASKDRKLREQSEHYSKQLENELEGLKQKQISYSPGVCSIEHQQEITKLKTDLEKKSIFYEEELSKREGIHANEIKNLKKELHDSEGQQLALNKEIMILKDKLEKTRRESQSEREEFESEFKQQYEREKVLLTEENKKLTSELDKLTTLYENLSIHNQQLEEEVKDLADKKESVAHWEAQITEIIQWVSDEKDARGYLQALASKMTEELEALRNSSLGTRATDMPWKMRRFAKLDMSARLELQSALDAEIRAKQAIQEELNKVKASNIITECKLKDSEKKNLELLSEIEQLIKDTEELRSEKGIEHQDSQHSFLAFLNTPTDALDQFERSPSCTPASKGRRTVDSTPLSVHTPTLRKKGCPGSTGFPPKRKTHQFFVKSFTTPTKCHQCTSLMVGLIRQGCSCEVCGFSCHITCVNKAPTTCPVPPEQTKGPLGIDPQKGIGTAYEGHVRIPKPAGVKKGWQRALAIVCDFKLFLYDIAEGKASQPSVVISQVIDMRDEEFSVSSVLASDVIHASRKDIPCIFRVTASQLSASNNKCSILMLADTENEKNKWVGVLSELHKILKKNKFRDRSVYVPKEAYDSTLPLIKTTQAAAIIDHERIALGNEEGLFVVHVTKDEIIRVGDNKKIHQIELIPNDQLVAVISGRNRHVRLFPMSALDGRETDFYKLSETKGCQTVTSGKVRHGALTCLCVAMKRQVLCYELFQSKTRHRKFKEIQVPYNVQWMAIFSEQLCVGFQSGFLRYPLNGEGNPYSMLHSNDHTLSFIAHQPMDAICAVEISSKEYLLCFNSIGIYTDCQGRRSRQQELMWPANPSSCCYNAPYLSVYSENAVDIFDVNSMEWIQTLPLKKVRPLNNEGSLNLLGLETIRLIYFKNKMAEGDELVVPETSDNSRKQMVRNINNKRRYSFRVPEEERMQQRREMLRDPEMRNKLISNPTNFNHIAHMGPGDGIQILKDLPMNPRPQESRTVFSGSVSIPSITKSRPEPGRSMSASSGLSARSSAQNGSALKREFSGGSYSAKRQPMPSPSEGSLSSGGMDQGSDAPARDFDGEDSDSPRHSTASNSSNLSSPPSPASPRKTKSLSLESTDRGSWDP

Q: For `Cc1c(F)cc(C(=O)NC2CC2)cc1-c1ccc(C(=O)NCC(C)(C)C)cn1` [LOSMAPIMOD], which Kd is on record?
A: > 30 µM (inactive)

Q: With `Cn1cc(-c2ccc(F)c(C(F)(F)F)c2)nc1C1CCN(c2ncnc3[nH]ncc23)CC1` [LY-2584702] as the molecule, how does the Kd read?
A: > 30 µM (inactive)

Q: With `O=C(O)[C@]1(Cc2cccc(Nc3nccs3)n2)CC[C@@H](Oc2cccc(Cl)c2F)CC1` [MK-5108] as the molecule, how does the Kd read?
A: > 30 µM (inactive)

Q: Which Kd does the source give for `C1=C/COCc2cc(ccc2OCCN2CCCC2)Nc2nccc(n2)-c2cccc(c2)COC/1` [PACRITINIB] here?
A: > 30 µM (inactive)

Target: Casein kinase I isoform epsilon (Homo sapiens, UniProt P49674)
Sequence (P49674 whole entry, canonical isoform): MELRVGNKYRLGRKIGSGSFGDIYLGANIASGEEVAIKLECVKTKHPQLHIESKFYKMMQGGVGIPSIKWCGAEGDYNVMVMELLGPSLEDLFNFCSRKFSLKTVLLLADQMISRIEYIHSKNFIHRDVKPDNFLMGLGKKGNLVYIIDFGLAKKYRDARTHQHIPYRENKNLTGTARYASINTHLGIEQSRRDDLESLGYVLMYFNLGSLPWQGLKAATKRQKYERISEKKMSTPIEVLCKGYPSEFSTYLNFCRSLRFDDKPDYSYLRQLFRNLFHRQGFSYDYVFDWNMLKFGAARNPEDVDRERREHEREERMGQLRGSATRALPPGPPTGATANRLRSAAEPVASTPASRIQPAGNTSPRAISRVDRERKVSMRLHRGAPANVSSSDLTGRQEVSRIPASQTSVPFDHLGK

Q: For `Cc1c(F)cc(C(=O)NC2CC2)cc1-c1ccc(C(=O)NCC(C)(C)C)cn1` [LOSMAPIMOD], which Kd is on record?
A: > 30 µM (inactive)

Q: With `Cn1cc(-c2ccc(F)c(C(F)(F)F)c2)nc1C1CCN(c2ncnc3[nH]ncc23)CC1` [LY-2584702] as the molecule, how does the Kd read?
A: > 30 µM (inactive)

Q: Which Kd does the source give for `O=C(O)[C@]1(Cc2cccc(Nc3nccs3)n2)CC[C@@H](Oc2cccc(Cl)c2F)CC1` [MK-5108] here?
A: > 30 µM (inactive)

Q: Which Kd does the source give for `C1=C/COCc2cc(ccc2OCCN2CCCC2)Nc2nccc(n2)-c2cccc(c2)COC/1` [PACRITINIB] here?
A: > 30 µM (inactive)

Target: Eukaryotic translation initiation factor 2-alpha kinase 1 (Homo sapiens, UniProt Q9BQI3)
Sequence (Q9BQI3 whole entry): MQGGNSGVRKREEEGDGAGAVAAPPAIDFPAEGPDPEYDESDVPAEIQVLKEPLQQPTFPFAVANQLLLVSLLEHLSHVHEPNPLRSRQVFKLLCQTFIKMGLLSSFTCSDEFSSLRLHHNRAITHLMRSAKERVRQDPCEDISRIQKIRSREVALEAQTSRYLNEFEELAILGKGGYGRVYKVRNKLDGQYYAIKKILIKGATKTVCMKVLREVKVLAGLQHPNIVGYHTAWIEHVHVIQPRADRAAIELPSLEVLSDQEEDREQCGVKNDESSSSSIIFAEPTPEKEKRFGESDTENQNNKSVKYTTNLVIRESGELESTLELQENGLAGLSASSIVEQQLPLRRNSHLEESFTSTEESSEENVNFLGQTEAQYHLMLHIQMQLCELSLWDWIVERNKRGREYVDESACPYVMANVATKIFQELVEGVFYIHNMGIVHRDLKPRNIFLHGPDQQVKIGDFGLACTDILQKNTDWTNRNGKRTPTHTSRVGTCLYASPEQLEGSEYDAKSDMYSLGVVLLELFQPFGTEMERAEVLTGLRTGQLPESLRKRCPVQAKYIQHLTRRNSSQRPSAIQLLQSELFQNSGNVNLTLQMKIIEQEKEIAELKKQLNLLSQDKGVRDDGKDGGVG

Q: With `Cc1c(F)cc(C(=O)NC2CC2)cc1-c1ccc(C(=O)NCC(C)(C)C)cn1` [LOSMAPIMOD] as the molecule, how does the Kd read?
A: > 30 µM (inactive)

Q: How did the Kd turn out when `Cn1cc(-c2ccc(F)c(C(F)(F)F)c2)nc1C1CCN(c2ncnc3[nH]ncc23)CC1` [LY-2584702] was run?
A: > 30 µM (inactive)

Q: With `O=C(O)[C@]1(Cc2cccc(Nc3nccs3)n2)CC[C@@H](Oc2cccc(Cl)c2F)CC1` [MK-5108] as the molecule, how does the Kd read?
A: > 30 µM (inactive)

Q: How did the Kd turn out when `C1=C/COCc2cc(ccc2OCCN2CCCC2)Nc2nccc(n2)-c2cccc(c2)COC/1` [PACRITINIB] was run?
A: > 30 µM (inactive)

Target: Tyrosine-protein kinase FRK (Homo sapiens, UniProt P42685)
Sequence (P42685 whole entry): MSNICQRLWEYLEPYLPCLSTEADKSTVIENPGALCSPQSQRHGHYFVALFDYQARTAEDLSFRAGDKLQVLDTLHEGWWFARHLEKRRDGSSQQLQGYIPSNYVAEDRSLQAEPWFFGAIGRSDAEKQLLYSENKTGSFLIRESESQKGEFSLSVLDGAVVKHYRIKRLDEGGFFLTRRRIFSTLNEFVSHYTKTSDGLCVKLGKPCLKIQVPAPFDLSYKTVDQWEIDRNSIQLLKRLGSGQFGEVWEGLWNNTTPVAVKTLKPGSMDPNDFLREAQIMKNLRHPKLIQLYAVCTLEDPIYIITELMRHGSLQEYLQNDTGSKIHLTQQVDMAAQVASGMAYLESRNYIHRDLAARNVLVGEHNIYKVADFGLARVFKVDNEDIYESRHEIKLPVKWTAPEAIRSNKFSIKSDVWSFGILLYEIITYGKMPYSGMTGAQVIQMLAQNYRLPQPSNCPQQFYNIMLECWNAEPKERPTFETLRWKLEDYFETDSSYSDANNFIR

Q: How did the Kd turn out when `Cc1c(F)cc(C(=O)NC2CC2)cc1-c1ccc(C(=O)NCC(C)(C)C)cn1` [LOSMAPIMOD] was run?
A: > 30 µM (inactive)

Q: Which Kd does the source give for `Cn1cc(-c2ccc(F)c(C(F)(F)F)c2)nc1C1CCN(c2ncnc3[nH]ncc23)CC1` [LY-2584702] here?
A: > 30 µM (inactive)

Q: With `O=C(O)[C@]1(Cc2cccc(Nc3nccs3)n2)CC[C@@H](Oc2cccc(Cl)c2F)CC1` [MK-5108] as the molecule, how does the Kd read?
A: 0.724 µM (active)

Q: Which Kd does the source give for `C1=C/COCc2cc(ccc2OCCN2CCCC2)Nc2nccc(n2)-c2cccc(c2)COC/1` [PACRITINIB] here?
A: > 30 µM (inactive)

Target: Dual specificity mitogen-activated protein kinase kinase 1 (Homo sapiens, UniProt Q02750)
Sequence (Q02750 whole entry): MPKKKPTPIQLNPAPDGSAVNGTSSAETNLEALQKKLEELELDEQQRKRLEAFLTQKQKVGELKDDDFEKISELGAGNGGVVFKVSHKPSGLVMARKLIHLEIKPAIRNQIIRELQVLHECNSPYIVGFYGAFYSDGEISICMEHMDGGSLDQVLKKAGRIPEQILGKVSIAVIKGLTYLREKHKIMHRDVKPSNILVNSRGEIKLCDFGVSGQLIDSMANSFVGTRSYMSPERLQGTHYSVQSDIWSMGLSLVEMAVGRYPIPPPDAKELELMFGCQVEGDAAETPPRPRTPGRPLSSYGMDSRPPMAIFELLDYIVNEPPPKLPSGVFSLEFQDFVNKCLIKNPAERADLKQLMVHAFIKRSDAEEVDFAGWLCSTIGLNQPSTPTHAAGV

Q: With `Cc1c(F)cc(C(=O)NC2CC2)cc1-c1ccc(C(=O)NCC(C)(C)C)cn1` [LOSMAPIMOD] as the molecule, how does the Kd read?
A: > 30 µM (inactive)

Q: `Cn1cc(-c2ccc(F)c(C(F)(F)F)c2)nc1C1CCN(c2ncnc3[nH]ncc23)CC1` [LY-2584702] was tested. Which Kd did it give?
A: > 30 µM (inactive)

Q: Which Kd does the source give for `O=C(O)[C@]1(Cc2cccc(Nc3nccs3)n2)CC[C@@H](Oc2cccc(Cl)c2F)CC1` [MK-5108] here?
A: > 30 µM (inactive)

Q: `C1=C/COCc2cc(ccc2OCCN2CCCC2)Nc2nccc(n2)-c2cccc(c2)COC/1` [PACRITINIB] was tested. Which Kd did it give?
A: > 30 µM (inactive)

Target: Mitogen-activated protein kinase 9 (Homo sapiens, UniProt P45984)
Sequence (P45984 whole entry): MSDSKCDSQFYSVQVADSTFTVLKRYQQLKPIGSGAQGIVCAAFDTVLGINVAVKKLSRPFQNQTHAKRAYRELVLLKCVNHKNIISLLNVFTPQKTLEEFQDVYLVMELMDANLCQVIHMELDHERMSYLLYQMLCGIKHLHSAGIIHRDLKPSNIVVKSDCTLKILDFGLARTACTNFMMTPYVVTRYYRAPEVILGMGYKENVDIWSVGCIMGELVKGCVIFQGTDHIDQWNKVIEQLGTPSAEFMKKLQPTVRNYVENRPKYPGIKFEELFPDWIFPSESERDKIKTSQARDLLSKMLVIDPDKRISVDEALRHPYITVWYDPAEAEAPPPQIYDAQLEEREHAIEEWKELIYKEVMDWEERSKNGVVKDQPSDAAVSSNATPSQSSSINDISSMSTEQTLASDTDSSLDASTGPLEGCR

Q: `Cc1c(F)cc(C(=O)NC2CC2)cc1-c1ccc(C(=O)NCC(C)(C)C)cn1` [LOSMAPIMOD] was tested. Which Kd did it give?
A: > 30 µM (inactive)

Q: Which Kd does the source give for `Cn1cc(-c2ccc(F)c(C(F)(F)F)c2)nc1C1CCN(c2ncnc3[nH]ncc23)CC1` [LY-2584702] here?
A: > 30 µM (inactive)

Q: With `O=C(O)[C@]1(Cc2cccc(Nc3nccs3)n2)CC[C@@H](Oc2cccc(Cl)c2F)CC1` [MK-5108] as the molecule, how does the Kd read?
A: > 30 µM (inactive)

Q: How did the Kd turn out when `C1=C/COCc2cc(ccc2OCCN2CCCC2)Nc2nccc(n2)-c2cccc(c2)COC/1` [PACRITINIB] was run?
A: > 30 µM (inactive)

Target: NADH dehydrogenase [ubiquinone] 1 alpha subcomplex subunit 13 (Homo sapiens, UniProt Q9P0J0)
Sequence (Q9P0J0 whole entry, one chain of several): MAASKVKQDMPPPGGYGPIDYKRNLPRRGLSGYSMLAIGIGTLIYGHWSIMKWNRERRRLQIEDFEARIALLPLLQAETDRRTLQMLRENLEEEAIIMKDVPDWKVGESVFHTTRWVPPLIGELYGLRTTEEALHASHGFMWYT

Q: With `Cc1c(F)cc(C(=O)NC2CC2)cc1-c1ccc(C(=O)NCC(C)(C)C)cn1` [LOSMAPIMOD] as the molecule, how does the Kd read?
A: > 30 µM (inactive)

Q: With `Cn1cc(-c2ccc(F)c(C(F)(F)F)c2)nc1C1CCN(c2ncnc3[nH]ncc23)CC1` [LY-2584702] as the molecule, how does the Kd read?
A: > 30 µM (inactive)

Q: How did the Kd turn out when `O=C(O)[C@]1(Cc2cccc(Nc3nccs3)n2)CC[C@@H](Oc2cccc(Cl)c2F)CC1` [MK-5108] was run?
A: > 30 µM (inactive)

Q: `C1=C/COCc2cc(ccc2OCCN2CCCC2)Nc2nccc(n2)-c2cccc(c2)COC/1` [PACRITINIB] was tested. Which Kd did it give?
A: > 30 µM (inactive)

Target: T2, Serine/threonine-protein kinase NLK (Homo sapiens, UniProt Q9UBE8)
T2 sequence (Q9UBE8 whole entry): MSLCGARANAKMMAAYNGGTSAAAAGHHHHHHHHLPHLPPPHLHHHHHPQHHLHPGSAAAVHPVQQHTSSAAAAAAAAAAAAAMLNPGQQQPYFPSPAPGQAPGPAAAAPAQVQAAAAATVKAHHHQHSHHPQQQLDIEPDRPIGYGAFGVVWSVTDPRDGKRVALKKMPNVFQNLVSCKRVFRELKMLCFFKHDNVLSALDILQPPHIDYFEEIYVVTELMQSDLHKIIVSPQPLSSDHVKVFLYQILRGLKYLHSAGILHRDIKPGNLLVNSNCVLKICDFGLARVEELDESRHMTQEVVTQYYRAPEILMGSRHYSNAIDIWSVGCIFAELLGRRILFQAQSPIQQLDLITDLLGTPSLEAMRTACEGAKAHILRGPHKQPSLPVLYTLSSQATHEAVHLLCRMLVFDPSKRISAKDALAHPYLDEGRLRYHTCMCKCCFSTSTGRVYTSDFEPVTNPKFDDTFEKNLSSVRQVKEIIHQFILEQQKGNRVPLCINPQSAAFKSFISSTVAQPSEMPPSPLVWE

Q: `Cc1c(F)cc(C(=O)NC2CC2)cc1-c1ccc(C(=O)NCC(C)(C)C)cn1` [LOSMAPIMOD] was tested. Which Kd did it give?
A: > 30 µM (inactive)

Q: Which Kd does the source give for `Cn1cc(-c2ccc(F)c(C(F)(F)F)c2)nc1C1CCN(c2ncnc3[nH]ncc23)CC1` [LY-2584702] here?
A: > 30 µM (inactive)

Q: `O=C(O)[C@]1(Cc2cccc(Nc3nccs3)n2)CC[C@@H](Oc2cccc(Cl)c2F)CC1` [MK-5108] was tested. Which Kd did it give?
A: > 30 µM (inactive)

Q: For `C1=C/COCc2cc(ccc2OCCN2CCCC2)Nc2nccc(n2)-c2cccc(c2)COC/1` [PACRITINIB], which Kd is on record?
A: > 30 µM (inactive)

Target: Serine/threonine-protein kinase N1 (Homo sapiens, UniProt Q16512)

Q: With `Cc1c(F)cc(C(=O)NC2CC2)cc1-c1ccc(C(=O)NCC(C)(C)C)cn1` [LOSMAPIMOD] as the molecule, how does the Kd read?
A: > 30 µM (inactive)

Q: For `Cn1cc(-c2ccc(F)c(C(F)(F)F)c2)nc1C1CCN(c2ncnc3[nH]ncc23)CC1` [LY-2584702], which Kd is on record?
A: > 30 µM (inactive)

Q: `O=C(O)[C@]1(Cc2cccc(Nc3nccs3)n2)CC[C@@H](Oc2cccc(Cl)c2F)CC1` [MK-5108] was tested. Which Kd did it give?
A: > 30 µM (inactive)

Q: How did the Kd turn out when `C1=C/COCc2cc(ccc2OCCN2CCCC2)Nc2nccc(n2)-c2cccc(c2)COC/1` [PACRITINIB] was run?
A: > 30 µM (inactive)

Target: T3, Septin-9 (Homo sapiens, UniProt Q9UHD8)
T3 sequence (Q9UHD8 whole entry): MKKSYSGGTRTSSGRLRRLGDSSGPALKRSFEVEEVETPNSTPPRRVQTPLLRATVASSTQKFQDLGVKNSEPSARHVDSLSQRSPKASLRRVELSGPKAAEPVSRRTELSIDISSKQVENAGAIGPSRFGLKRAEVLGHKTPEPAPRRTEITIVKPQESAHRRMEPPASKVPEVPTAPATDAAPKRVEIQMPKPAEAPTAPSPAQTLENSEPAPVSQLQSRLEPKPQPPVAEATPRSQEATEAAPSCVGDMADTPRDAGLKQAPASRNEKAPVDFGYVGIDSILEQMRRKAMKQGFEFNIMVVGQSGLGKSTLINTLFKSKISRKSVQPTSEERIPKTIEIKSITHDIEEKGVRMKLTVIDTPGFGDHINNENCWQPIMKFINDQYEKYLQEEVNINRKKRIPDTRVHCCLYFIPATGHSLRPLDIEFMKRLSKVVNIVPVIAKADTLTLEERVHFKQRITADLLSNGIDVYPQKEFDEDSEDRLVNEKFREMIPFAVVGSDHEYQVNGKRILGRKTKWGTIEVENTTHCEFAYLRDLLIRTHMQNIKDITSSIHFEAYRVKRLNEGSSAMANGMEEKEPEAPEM

Q: With `Cc1c(F)cc(C(=O)NC2CC2)cc1-c1ccc(C(=O)NCC(C)(C)C)cn1` [LOSMAPIMOD] as the molecule, how does the Kd read?
A: > 30 µM (inactive)

Q: How did the Kd turn out when `Cn1cc(-c2ccc(F)c(C(F)(F)F)c2)nc1C1CCN(c2ncnc3[nH]ncc23)CC1` [LY-2584702] was run?
A: > 30 µM (inactive)

Q: `O=C(O)[C@]1(Cc2cccc(Nc3nccs3)n2)CC[C@@H](Oc2cccc(Cl)c2F)CC1` [MK-5108] was tested. Which Kd did it give?
A: > 30 µM (inactive)

Q: Which Kd does the source give for `C1=C/COCc2cc(ccc2OCCN2CCCC2)Nc2nccc(n2)-c2cccc(c2)COC/1` [PACRITINIB] here?
A: > 30 µM (inactive)

Target: Elongation factor Tu, mitochondrial (Homo sapiens, UniProt P49411)

Q: With `Cc1c(F)cc(C(=O)NC2CC2)cc1-c1ccc(C(=O)NCC(C)(C)C)cn1` [LOSMAPIMOD] as the molecule, how does the Kd read?
A: > 30 µM (inactive)

Q: Which Kd does the source give for `Cn1cc(-c2ccc(F)c(C(F)(F)F)c2)nc1C1CCN(c2ncnc3[nH]ncc23)CC1` [LY-2584702] here?
A: > 30 µM (inactive)

Q: Which Kd does the source give for `O=C(O)[C@]1(Cc2cccc(Nc3nccs3)n2)CC[C@@H](Oc2cccc(Cl)c2F)CC1` [MK-5108] here?
A: > 30 µM (inactive)

Q: With `C1=C/COCc2cc(ccc2OCCN2CCCC2)Nc2nccc(n2)-c2cccc(c2)COC/1` [PACRITINIB] as the molecule, how does the Kd read?
A: > 30 µM (inactive)
